Assay results published in publication PMC10811744 (Molecular cancer therapeutics, 2023).
Where “and” joins values, the source holds several entries; their conditions need not be identical. Equal values may be shown once. Read-outs that look alike come from different tables or passages of the source.

Assays:
[1] = test system: U251 and U87 GBM model cells; assay: Matrigel invasion chamber assay; assay type: cell-based, human; conditions: 10μM, 22h
GBM cells [2] = assay: Annexin V/PI apoptosis assay; assay type: cell-based, human; conditions: 20 μM
orthotopic U251 tumor = assay: Orthotopic U251 xenograft model; assay type: in vivo, mice; conditions: 50 mg/kg/i.p.
U251 and U87 cells = assay: Colony formation; assay type: cell-based, human; conditions: 10 μM
[3] = test system: U251 GBM model cells expressing ERβ; assay: MTT cell viability assay, U251 GBM model cells expressing ERβ; assay type: cell-based, human; conditions: read-out: growth inhibitory activity IC50
[4] = mouse, in vivo, ip, 20 mg/kg
[5] = test system: U251 subcutaneous xenograft; conditions: 20 mg/kg/day i.p.
ERβ [6] = target: T1, ERβ (Homo sapiens, UniProt Q92731); assay: PolarScreen ER competitive binding assay; conditions: based on EC50 values from polar screen ERα and ERβ assays
GBM cells [7] = assay: GBM cell viability; assay type: cell-based, human; conditions: read-out: GBM cell viability IC50
SOX2, and OCT4 = assay: Western blotting of stemness markers in GSCs; assay type: cell-based, human
[8] = test system: GSC-031417, GSC-012015, and GSC-040815 cells; assay: Neurosphere formation assay; assay type: cell-based, human; conditions: 20 μM, three GSC model cells
ERβ [9] = target: T1, ERβ; assay: ERE-Luc reporter gene assay in HEK293T cells expressing ERβ; assay type: cell-based; conditions: 24 hours
normal human astrocytes = assay: MTT cell viability assay, normal human astrocytes; assay type: cell-based
U251- ERβ KO cells = assay: Invasion and colony formation of U251-ERβ KO cells; assay type: cell-based, human
ERα = ERα (Homo sapiens, UniProt P03372); assay: ERE-Luc reporter gene assay in HEK293T cells expressing ERα; assay type: cell-based; conditions: 24 hours
ERβ target genes = assay: RT-qPCR of ERβ target genes in patient derived GSCs; assay type: cell-based, human; conditions: 10 μM, 72h, GSC-040815, GSC-031417, RT-qPCR
U251 GBM cells = assay: MTT cell viability assay, WT U251 GBM cells; assay type: cell-based, human
U251-ERβ-KO cells = assay: MTT cell viability assay, U251-ERβ-KO cells; assay type: cell-based, human
[10] = test system: GSC-040815 orthotopic tumor; assay: Orthotopic xenograft model with patient-derived GSC-040815 cells; assay type: in vivo, SCID mice; conditions: 50 mg/kg/i.p.
ERβ [11] = target: T1, ERβ; assay: ERE-Luc reporter gene assay in U251 GBM cells expressing ERβ; assay type: cell-based; conditions: 24 h
primary GSCs = assay: CellTiter Glo cell viability assay, patient derived GSCs; assay type: cell-based, human; conditions: multiple primary GSCs
[12] = no reference given; cited from earlier work
GBM cells [13] = conditions: read-out: IC50 in GBM cells, no reference given; cited from earlier work

T1 sequence (Q92731 whole entry): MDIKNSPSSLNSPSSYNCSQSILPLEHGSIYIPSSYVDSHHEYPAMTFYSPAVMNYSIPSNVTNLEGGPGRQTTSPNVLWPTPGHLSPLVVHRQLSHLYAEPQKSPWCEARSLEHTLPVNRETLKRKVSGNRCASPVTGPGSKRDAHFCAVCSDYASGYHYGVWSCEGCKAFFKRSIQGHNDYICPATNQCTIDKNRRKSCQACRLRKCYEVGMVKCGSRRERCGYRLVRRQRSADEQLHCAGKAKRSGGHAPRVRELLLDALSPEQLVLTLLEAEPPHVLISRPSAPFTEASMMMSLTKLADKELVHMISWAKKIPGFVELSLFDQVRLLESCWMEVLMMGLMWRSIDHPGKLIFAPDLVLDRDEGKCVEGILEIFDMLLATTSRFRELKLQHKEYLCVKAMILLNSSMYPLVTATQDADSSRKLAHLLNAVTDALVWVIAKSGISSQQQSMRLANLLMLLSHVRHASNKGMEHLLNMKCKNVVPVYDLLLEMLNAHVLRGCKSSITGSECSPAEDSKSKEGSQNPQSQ
ERα, sequence (P03372 whole entry): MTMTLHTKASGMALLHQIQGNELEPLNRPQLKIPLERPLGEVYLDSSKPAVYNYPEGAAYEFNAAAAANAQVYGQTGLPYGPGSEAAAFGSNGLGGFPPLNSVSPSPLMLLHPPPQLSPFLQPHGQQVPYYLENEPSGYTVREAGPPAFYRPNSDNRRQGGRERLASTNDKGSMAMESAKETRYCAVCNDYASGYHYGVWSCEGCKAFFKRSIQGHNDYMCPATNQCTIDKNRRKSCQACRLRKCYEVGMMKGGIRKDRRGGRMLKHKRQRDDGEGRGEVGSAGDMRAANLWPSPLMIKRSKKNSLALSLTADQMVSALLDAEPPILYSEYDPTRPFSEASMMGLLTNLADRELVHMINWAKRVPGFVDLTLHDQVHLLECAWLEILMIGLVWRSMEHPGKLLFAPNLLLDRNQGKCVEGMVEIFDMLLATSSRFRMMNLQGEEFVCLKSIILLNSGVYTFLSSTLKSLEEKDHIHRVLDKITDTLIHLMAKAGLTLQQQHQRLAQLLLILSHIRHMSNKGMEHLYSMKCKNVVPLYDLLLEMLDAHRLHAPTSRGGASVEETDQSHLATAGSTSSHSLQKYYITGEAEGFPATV

Q: With `CCN(CC)CCCC(C)NC(=O)c1ccc2c(c1)C(=O)c1ccccc1C2=O` (stereo not shown) [CIDD-0149897] as the molecule, how does the GBM cells invasion [1] read?
A: significantly reduced

Q: What about the “apoptosis of GBM cells” value (GBM cells [2]) of the same molecule?
A: significantly promoted apoptosis

Q: And the “survival of orthotopic U251 tumor bearing mice” value (orthotopic U251 tumor)?
A: significantly increased the survival

Q: What about the “Ki-67 positive proliferating cells, IHC” value (orthotopic U251 tumor; tumor sections) of the same molecule?
A: fewer proliferating cells

Q: What about the long-term colony formation (U251 and U87 cells) of the same molecule?
A: significantly reduced

Q: What about the IC50 [3] of the same molecule?
A: 7.4 µM and ~7.4 µM

Q: And the “mean half-life, terminal elimination phase” value [4]?
A: 9.59 h

Q: And the “time to maximum blood concentration” value [4]?
A: less than 15 min

Q: And the “ERβ target genes in tumor tissues, RT-qPCR” value [5]?
A: significant increase

Q: And the “tumor progression compared to vehicle” value ([5]; 5 days/week)?
A: significantly reduced

Q: And the “tumor weights compared to vehicle” value ([5]; after 35 days of treatment)?
A: significantly smaller

Q: And the “Ki-67 positive proliferating cells, IHC” value ([5]; tumors)?
A: fewer proliferating cells

Q: And the “selectivity for ERβ over ERα” value (ERβ [6])?
A: 40 fold

Q: What about the IC50 (GBM cells [7]) of the same molecule?
A: 7 to 15 µM

Q: And the “expression of stemness markers” value (SOX2, and OCT4)?
A: reduced the expression of stemness markers

Q: What about the neurosphere growth [8] of the same molecule?
A: significantly reduced

Q: What about the ERβ reporter activity (ERβ [9]) of the same molecule?
A: enhanced ERβ reporter activity in a dose dependent manner

Q: What about the “effect on viability of normal human astrocytes” value (normal human astrocytes) of the same molecule?
A: little to no effect

Q: What about the “effect on viability of normal human astrocytes” value (normal human astrocytes; listed as CIDD-014987) of the same molecule?
A: no/limited effect

Q: And the “invasion and colony formation of U251- ERβ KO cells” value (U251- ERβ KO cells)?
A: no significant effect

Q: And the ERα reporter activation (ERα)?
A: no activation of ERα reporter

Q: And the “expression of ERβ target genes” value (ERβ target genes)?
A: activation of ERβ target genes

Q: What about the “effect on U251 cell viability” value (U251 GBM cells) of the same molecule?
A: significantly decreased

Q: What about the “effect on viability of ERβ-KO cells” value (U251-ERβ-KO cells) of the same molecule?
A: little to no effect

Q: What about the “effect on viability of ERβ-KO cells” value (U251-ERβ-KO cells; listed as CIDD-014987) of the same molecule?
A: no/limited effect

Q: What about the “Ki-67 positive cells, IHC” value [10] of the same molecule?
A: significantly decreased

Q: And the “survival of GSC tumor-bearing mice” value [10]?
A: significantly enhanced the survival

Q: What about the ERβ reporter activity (ERβ [11]) of the same molecule?
A: enhanced ERβ reporter activity in a dose dependent manner in U251 GBM cells

Q: What about the “cytotoxic activity against primary GSCs” value (primary GSCs) of the same molecule?
A: potent cytotoxic activity

Q: With `Oc1ccc([C@H]2COc3cc(O)ccc3C2)cc1` [S-equol] as the molecule, how does the brain penetration [12] read?
A: lacks brain penetration

Q: And the IC50 (GBM cells [13])?
A: 100 to 200 µM
